Data published in patent US12180226B2, “Spirotricycle RIPK1 inhibitors and methods of uses thereof” (Merck Sharp & Dohme LLC, priority 2021, dated 2024).
Where a name gives a salt, the structure may show the parent alone.

Biological target: RIPK1 (recombinant GST-RIPK1 kinase domain, residues 1-327) (Homo sapiens (Human), UniProt Q13546)
Test: RIPK1-ADP-Glo Enzymatic Assay
Assay type: biochemical
Settings: ADP-Glo; 25 nM GST-RIPK1, 300 μM ATP; assay lower limit ~25 nM; read-out: RIPK1 V0 Ec50
Outline: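 Compounds titrated 10-pt 1:3 from 100000 nM top (1% DMSO); 30 min preinc w/ 25 nM Sf21-expressed enzyme, RT; start w/ ATP (300 μM final) + dephos-MBP (3 μM); 150 min; ADP-Glo lumi; 4-param fit → EC50.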

Chain of RIPK1 (recombinant GST-RIPK1 kinase domain, residues 1-327) (Q13546 1-327): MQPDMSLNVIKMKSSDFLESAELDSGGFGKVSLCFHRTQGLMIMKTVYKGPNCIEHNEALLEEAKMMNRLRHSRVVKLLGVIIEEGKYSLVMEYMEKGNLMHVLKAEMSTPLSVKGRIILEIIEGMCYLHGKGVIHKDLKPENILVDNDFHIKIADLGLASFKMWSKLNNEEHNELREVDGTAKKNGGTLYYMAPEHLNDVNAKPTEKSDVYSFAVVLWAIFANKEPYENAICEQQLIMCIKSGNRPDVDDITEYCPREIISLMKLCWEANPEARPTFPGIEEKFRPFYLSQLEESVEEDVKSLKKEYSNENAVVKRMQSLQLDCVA

Row | EC50 | Compound
1 | 487 nM | O=C1N2[C@@H](CC[C@H]2c2cc(F)cc(F)c2)OC12CCN(c1nccn3cncc13)CC2 [Example 13.14, (5′S,7a′R)-5′-(3,5-difluorophenyl)-1-(imidazo[1,5-a]pyrazin-8-yl)tetrahydro-3′H-spiro[piperidine-4,2′-pyrrolo[2,1-b]oxazol]-3′-one, TFA salt]
2 | 271 nM | COC1(C)CN(C(=O)c2nc(N3CCC4(CC3)O[C@@H]3CC[C@@H](c5cc(F)cc(F)c5)N3C4=O)ncc2F)C1 [Example 7.6, (5′S,7a′R)-5′-(3,5-difluorophenyl)-1-[5-fluoro-4-(3-methoxy-3-methylazetidine-1-carbonyl)pyrimidin-2-yl]tetrahydro-3′H-spiro[piperidine-4,2′-pyrrolo[2,1-b][1,3]oxazol]-3′-one]
3 | 240 nM | N#Cc1ccc(N2CCC3(CC2)O[C@@H]2CC[C@@H](c4cc(F)cc(F)c4)N2C3=O)nn1 [Example 4.100, 6-((5′S,7a′R)-5′-(3,5-difluorophenyl)-3′-oxotetrahydro-3′H-spiro[piperidine-4,2′-pyrrolo[2,1-b]oxazol]-1-yl)pyridazine-3-carbonitrile]
4 | 76.8 nM | COc1ccc2oc(N3CCC4(CC3)O[C@@H]3CC[C@@H](c5ccccc5)N3C4=O)nc2c1 [Example 4.160, (5′S,7a′R)-1-(5-methoxy-1,3-benzoxazol-2-yl)-5′-phenyltetrahydro-3′H-spiro[piperidine-4,2′-pyrrolo[2,1-b] [1,3]oxazol]-3′-one]
5 | 22.3 nM | COc1cc(N2CCC3(CC2)O[C@@H]2CC[C@@H](c4ccccc4)N2C3=O)ncn1 [Example 4.39, (5′S,7a′R)-1-(6-methoxypyrimidin-4-yl)-5′-phenyltetrahydro-3′H-spiro[piperidine-4,2′-pyrrolo[2,1-b] [1,3]oxazol]-3′-one]
6 | 12 nM | COc1nc(N2CCC3(CC2)O[C@@H]2CC[C@@H](c4cc(F)cc(F)c4)N2C3=O)ncc1C#N [Example 4.38, 2-[(5′S,7a′R)-5′-(3,5-difluorophenyl)-3′-oxotetrahydro-1H,3′H-spiro[piperidine-4,2′-pyrrolo[2,1-b] [1,3]oxazol]-1-yl]-4-methoxypyrimidine-5-carbonitrile]
7 | < 25 nM | O=C1N2[C@@H](CC[C@H]2c2ccccc2)OC12CCN(c1cc(-n3ccnc3)ncn1)CC2 [Example 4.171, (5′S,7a′R)-1-[6-(1H-imidazol-1-yl)pyrimidin-4-yl]-5′-phenyltetrahydro-3′H-spiro[piperidine-4,2′-pyrrolo[2,1-b] [1,3]oxazol]-3′-one]
8 | < 25 nM | COc1cccc(C(=O)N2CCC3(CC2)O[C@@H]2CC[C@@H](c4cc(F)cc(F)c4)N2C3=O)c1F [Example 6.7, (5′S,7a′R)-5′-(3,5-difluorophenyl)-1-(2-fluoro-3-methoxy-benzene-1-carbonyl) tetrahydro-3′H-spiro [piperidine-4,2′-pyrrolo[2,1-b][1,3]oxazol]-3′-one]
9 | < 25 nM | O=C1N2[C@@H](CC[C@H]2c2cc(F)cc(F)c2)OC12CCN(c1ccnc3c(F)cnn13)CC2 [Example 3.1, (5′S,7a′R)-5′-(3,5-difluorophenyl)-1-(3-fluoropyrazolo[1,5-a]pyrimidin-7-yl)tetrahydro-3′H-spiro[piperidine-4,2′-pyrrolo[2,1-b]oxazol]-3′-one]
10 | 235 nM | O=C1N2[C@@H](CC[C@H]2c2ccccc2)OC12CN(c1ncnc3ccnn13)C2 [Example 4.137, (5′S,7a′R)-5′-phenyl-1-(pyrazolo[1,5-a] [1,3,5]triazin-4-yl)tetrahydro-3′H-spiro[azetidine-3,2′-pyrrolo[2,1-b] [1,3]oxazol]-3′-one]
11 | 28.4 nM | O=C(c1cocn1)N1CCC2(CC1)O[C@@H]1CC[C@@H](c3cc(F)cc(F)c3)N1C2=O [Example 5.30, (5′S,7a′R)-5′-(3,5-difluoro-phenyl)-1-(1-oxazole-4-carbonyl)tetrahydro-3′H-spiro[piperidine-4,2′-pyrrolo[2,1-b]oxazol]-3′-one]
12 | < 25 nM | O=C1N2[C@@H](CC[C@H]2c2cc(F)cc(F)c2)OC12CCN(c1ccc(Cl)c3ncnn13)CC2 [Example 15.4, (5′S,7a′R)-1-(8-chloro-[1,2,4]triazolo[1,5-a]pyridin-5-yl)-5′-(3,5-difluorophenyl)tetrahydro-3′H-spiro[piperidine-4,2′-pyrrolo[2,1-b]oxazol]-3′-one, TFA salt]
13 | 523 nM | C[C@@]12CC[C@@H](c3ccccc3)N1C(=O)C1(CCN(C(=O)c3ccccc3)CC1)O2 [Example 6.98, (5′S,7a′R)-1-(benzene-carbonyl)-7a′-methyl-5′-phenyltetrahydro-3′H-spiro[piperidine-4,2′-pyrrolo[2,1-b] [1,3]oxazol]-3′-one]
14 | < 25 nM | N#Cc1ccc(N2CCC3(CC2)O[C@@H]2CC[C@@H](c4ccccc4)N2C3=O)n2ncnc12 [Example 4.261, 5-[(5′S,7a′R)-3′-oxo-5′-phenyltetrahydro-1H,3′H-spiro[piperidine-4,2′-pyrrolo[2,1-b] [1,3]oxazol]-1-yl][1,2,4]triazolo[1,5-a] pyridine-8-carbonitrile]
15 | < 25 nM | NC(=O)c1ccc(N2CCC3(CC2)O[C@@H]2CC[C@@H](c4cccc(F)c4)N2C3=O)n2ncnc12 [Example 4.152, 5-[(5′S,7a′R)-5′-(3-fluorophenyl)-3′-oxotetrahydro-1H,3′H-spiro[piperidine-4,2′-pyrrolo[2,1-b] [1,3]oxazol]-1-yl][1,2,4]triazolo[1,5-a] pyridine-8-carboxamide]
16 | 37.8 nM | O=C1N2[C@@H](CC[C@H]2c2ccccc2F)OC12CN(c1ccnc(Cl)c1)C2 [Example 4.109, (5′S,7a′R)-1-(2-chloropyridin-4-yl)-5′-(2-fluorophenyl)tetrahydro-3′H-spiro[azetidine-3,2′-pyrrolo[2,1-b]oxazol]-3′-one]
17 | 35.6 nM | N#Cc1cc(N2CCC3(CC2)O[C@@H]2CC[C@@H](c4cccc(F)c4)N2C3=O)ncn1 [Example 4.122, 6-[(5′S,7a′R)-5′-(3-fluorophenyl)-3′-oxotetrahydro-1H,3′H-spiro[piperidine-4,2′-pyrrolo[2,1-b] [1,3]oxazol]-1-yl]pyrimidine-4-carbonitrile]
18 | 91.3 nM | Cn1nc(N2CCC3(CC2)O[C@@H]2CC[C@@H](c4ccccc4)N2C3=O)ccc1=O [Example 11.7, (5′S,7a′R)-1-(1-methyl-6-oxo-1,6-dihydropyridazin-3-yl)-5′-phenyltetrahydro-3′H-spiro[piperidine-4,2′-pyrrolo[2,1-b][1,3]oxazol]-3′-one]
19 | 429 nM | O=C1N2[C@@H](CC[C@H]2c2ccccc2F)OC12CN(S(=O)(=O)c1ccccc1)C2 [Example 8.5, (5′S,7a′R)-5′-(2-fluorophenyl)-1-(phenylsulfonyl)tetra-hydro-3′H-spiro[azetidine-3,2′-pyrrolo[2,1-b]oxazol]-3′-one]
20 | < 25 nM | N#Cc1ccc(N2CCC3(CC2)O[C@@H]2CC[C@@H](c4ccccc4F)N2C3=O)n2nccc12 [Example 4.156, 7-[(5′S,7a′R)-5′-(2-fluorophenyl)-3′-oxotetrahydro-1H,3′H-spiro[piperidine-4,2′-pyrrolo[2,1-b] [1,3]oxazol]-1-yl]pyrazolo[1,5-a] pyridine-4-carbonitrile]
21 | < 25 nM | CN(C)c1cccc(C(=O)N2CCC3(CC2)O[C@@H]2CC[C@@H](c4ccccc4)N2C3=O)c1 [Example 6.144, (5′S,7a′R)-1-[3-(dimethylamino)ben-zene-1-carbonyl]-5′-phenyltetrahydro-3′H-spiro[piperidine-4,2′-pyrrolo[2,1-b][1,3]oxazol]-3'-one]
